Data from the NIST ThermoML archive (doi:10.1021/acs.jced.7b00503).

Test: wn = mass fraction of the nth substance listed
Conditions: Pendant drop shape

[Br-].[K+] [potassium bromide] + O
surface tension liquid-gas [mN/m]
Conditions	w1 = 0.05	w1 = 0.1	w1 = 0.15	w1 = 0.2	w1 = 0.25	w1 = 0.3	w1 = 0.35	w1 = 0.4
293.15 K	73.93	74.51	74.9	75.3	76.16	77.43	78.85	80.3
303.15 K	72.42	73.05	73.27	73.82	74.82	76.15	77.51	78.92
313.15 K	70.85	71.44	71.74	72.29	73.39	74.72	76.17	77.58
323.15 K	69.14	69.86	70.21	70.82	71.86	73.23	74.64	76.06
333.15 K	67.31	67.95	68.49	69.25	70.24	71.64	73.11	74.53
343.15 K	65.4	66.14	66.77	67.46	68.61	69.93	71.39	72.87
353.15 K	63.44	64.11	64.86	65.73	66.79	68.15	69.57	71.22

[Br-].[Na+] [sodium bromide] + O
surface tension liquid-gas [mN/m]
Conditions	w1 = 0.05	w1 = 0.1	w1 = 0.15	w1 = 0.2	w1 = 0.25	w1 = 0.3	w1 = 0.35	w1 = 0.4
293.15 K	74.11	75.5	76.51	77.4	78.93	80.32	82	83.5
303.15 K	72.43	73.5	74.83	75.4	77.25	78.62	80.31	81.93
313.15 K	70.75	72	73.14	74.1	75.68	77.05	78.73	80.36
323.15 K	69.07	70	71.36	72.6	74	75.26	77.05	78.56
333.15 K	67.28	68.4	69.67	70.8	72.31	73.6	75.37	76.87
343.15 K	65.49	66.4	67.85	69.5	70.52	71.87	73.9	75.73
353.15 K	63.71	64.73	65.99	67.34	68.6	70.06	71.81	73.32

O [water] + [Br-].[K+]
w2 = 0
Conditions	surface tension liquid-gas [mN/m]
293.15 K	72.75
303.15 K	71.15
313.15 K	69.55
323.15 K	67.9
333.15 K	66.17
343.15 K	64.39
353.15 K	62.61

O [water] + [Cl-].[K+]
w2 = 0
Conditions	surface tension liquid-gas [mN/m]
293.15 K	72.75
303.15 K	71.15
313.15 K	69.55
323.15 K	67.9
333.15 K	66.17
343.15 K	64.39
353.15 K	62.61

O [water] + [I-].[K+]
w2 = 0
Conditions	surface tension liquid-gas [mN/m]
293.15 K	72.75
298.15 K	71.97
303.15 K	71.15
313.15 K	69.55
323.15 K	67.9
333.15 K	66.17

[I-].[K+] [potassium iodide] + O
surface tension liquid-gas [mN/m]
Conditions	293.15 K	298.15 K	303.15 K	313.15 K	323.15 K	333.15 K
w1 = 0.01	73.24	72.53	71.81	70.45	68.95	67.52
w1 = 0.02	73.65	73	72.35	71.05	69.69	68.36
w1 = 0.03	74.15	73.57	72.85	71.62	70.32	68.95
w1 = 0.04	75.05	74.45	73.7	72.4	71.2	69.75
w1 = 0.05	75.44	74.79	74	72.7	71.47	69.98
w1 = 0.06	76.12	75.4	74.75	73.39	72.15	70.53
w1 = 0.07	76.76	76.04	75.39	74.09	72.6	70.97
w1 = 0.08	77.23	77.03	76.15	74.96	73.86	72.7
w1 = 0.09	78.32	77.68	77.09	75.86	74.62	73.19
w1 = 0.1	79.11	78.6	78	76.83	75.66	74.36
w1 = 0.11	80.21	79.5	78.84	77.67	76.43	75.26
w1 = 0.12	81.04	80.2	79.51	78.4	77.16	75.86

O [water] + [Cl-].[Na+]
w2 = 0
Conditions	surface tension liquid-gas [mN/m]
293.15 K	72.75
298.15 K	71.97
303.15 K	71.15
313.15 K	69.55
323.15 K	67.9
333.15 K	66.17

[Cl-].[Na+] [sodium chloride] + O
surface tension liquid-gas [mN/m]
Conditions	w1 = 0.025	w1 = 0.05	w1 = 0.075	w1 = 0.1	w1 = 0.125	w1 = 0.15	w1 = 0.175	w1 = 0.2	w1 = 0.225	w1 = 0.25
293.15 K	73.42	74.09	74.85	75.6	76.54	77.52	78.7	79.82	81.03	81.95
298.15 K	72.63	73.32	74.15	74.9	75.8	76.7	77.82	78.85	80.32	81.41
303.15 K	71.83	72.56	73.35	74.17	75.09	76.11	77.2	78.26	79.77	80.8
313.15 K	70.33	71.12	71.95	72.81	73.86	74.9	75.98	76.99	78.54	79.7
323.15 K	68.93	69.91	70.62	71.32	72.46	73.55	74.68	75.71	77.32	78.45
333.15 K	67.21	68.24	69.21	70.14	71.18	72.22	73.43	74.52	76.01	77.14

[I-].[Na+] [sodium iodide] + O
surface tension liquid-gas [mN/m]
Conditions	293.15 K	298.15 K	303.15 K	313.15 K	323.15 K	333.15 K
w1 = 0.05	73.15	72.4	71.66	70.23	68.78	67.4
w1 = 0.1	73.6	73	72.22	70.81	69.34	67.93
w1 = 0.15	74.17	73.48	72.79	71.36	69.81	68.42
w1 = 0.2	74.7	73.96	73.34	71.85	70.35	68.86
w1 = 0.25	75.15	74.4	73.8	72.45	70.95	69.43
w1 = 0.3	75.5	74.9	74.26	72.92	71.56	69.96
w1 = 0.35	76.29	75.71	75.08	73.76	72.5	71.19
w1 = 0.4	77.1	76.5	75.85	74.6	73.35	72.24
w1 = 0.45	78.25	77.63	77.03	75.96	74.77	73.77
w1 = 0.5	79.35	78.85	78.34	77.3	76.17	75.04
w1 = 0.55	80.66	80.14	79.68	78.66	77.68	77.15

[Cl-].[K+] [potassium chloride] + O
surface tension liquid-gas [mN/m]
Conditions	w1 = 0.025	w1 = 0.05	w1 = 0.075	w1 = 0.1	w1 = 0.125	w1 = 0.15	w1 = 0.175	w1 = 0.2
293.15 K	73.32	73.89	74.52	75.13	75.61	76.15	77.1	77.99
303.15 K	71.83	72.44	73.09	73.68	74.44	75.18	75.74	76.32
313.15 K	70.27	71.05	71.66	72.24	72.88	73.56	74.18	74.82
323.15 K	68.58	69.17	69.84	70.49	71.12	71.74	72.36	73
333.15 K	66.95	67.7	68.21	68.76	69.37	69.83	70.47	71.1
343.15 K	65	65.55	66.46	67.35	67.94	68.47	69.17	69.81
353.15 K	63.25	63.91	64.64	65.37	66.05	66.73	67.35	68.12

O [water] + [Br-].[Na+]
w2 = 0
Conditions	surface tension liquid-gas [mN/m]
293.15 K	72.75
303.15 K	71.15
313.15 K	69.55
323.15 K	67.9
333.15 K	66.17
343.15 K	64.39
353.15 K	62.61

O [water] + [I-].[Na+]
w2 = 0
Conditions	surface tension liquid-gas [mN/m]
293.15 K	72.75
298.15 K	71.97
303.15 K	71.15
313.15 K	69.55
323.15 K	67.9
333.15 K	66.17
